Consider four compounds from US20250127748A1, “METHODS FOR THE TREATMENT OF MIGRAINE AND RELATED HEADACHE SYMPTOMS USING TRICAPRYLIN” (priority 2021, published 2025).

One data set has as its system CH attacks. The conditions noted are these: Di Lorenzo et al 2018; cited from earlier work.
In data set [1] the test system is trigeminal autonomic cephalgia (left hemi-cephalgia), person. The experiment in a line: case report: trigeminal autonomic cephalgia responsive to tricaprylin. In kind it is in vivo, human. An excerpt: A person presented with a history of waxing and waning left hemi-cephalgia over the course of 10 years. Their past medical history included bilateral loss of hearing (right worse than left) and past episodes of dizziness leading to a diagnosis of possible Menieres disease. They had hyperlipedemia controlled with a statin. They had some excess weight (BMI 30.8), was a vegetarian and was physically active.
The cephalgia was described as a dull achy non-throbbing pain that when present is continuous over the left side of the face and across the left scalp. The pain appeared to be centered around the eye and was described as if […] were being poked in the eye. The pain also involved the left cheek and left scalp. They could not identify any specific trigger to the pain but did note that it was accompanied by tenderness to touch of the scalp on the left side of the head, including sensitivity to hair brushing. When the pain was present they would be aware of it upon awakening in the morning and it would persist throughout the day.
They had no other headache types, and had not experienced episodes of nasal stuffiness, or pupillary changes. They noted occasional excess lacrimation of the left eye. At one point they were investigated for potential ‘sinus problems’ and no sinus condition was diagnosed. […] […] self-medicated with occasional paracetamol which provided modest relief.
The subject began a daily treatment regimen with Axona®, a medical food containing the active ingredient tricaprylin.
At the time of presentation the headache had recurred to an intensity of 4-6/10 and they were restarted on a course of Axona®, starting with 5 g tricaprylin per day, increasing over 2 weeks to 20 g a day.

The test system of data set [2] is participants with frequent migraine. Description: randomised, double-blind, placebo-controlled study of tricaprylin as AC-SD-03 for the reduction of migraine. The class given is in vivo, human. From the text: This is a randomised, double-blind, placebo-controlled, parallel-group, multi-centre study of tricaprylin as AC-SD-03 compared with placebo for the reduction of migraine in participants with frequent migraine.
Following a screening period of up to 2 weeks, the study duration is 17 weeks including a 4-week baseline measurement period, after which randomisation occurs, a 12-week treatment period and a 1-week safety follow-up period.
The study will be completed in two parts. In Part 1, 54 participants will be randomised to receive tricaprylin as AC-SD-03, or placebo, in a 1:1 ratio. Once 54 participants are randomised, enrolment will be paused until the randomised participants have completed the study. Based on an unblinded analysis of the data from all evaluable patients from Part 1, a decision to proceed to Part 2 (enrolment of additional participants) will be taken. The decision to continue to Part 2 will be made by the Sponsor, based on a number of factors including the one-sided p-value for the analysis of the primary endpoint, ΔMDMth3, the safety and tolerability profile observed during Part 1, the observed between-subject variability, as well as trial conduct feasibility. The size of Part 2 will be determined by the between-subject variability observed in Part 1, and will be between 80 and 180 participants.
Investigational Medicinal Products: The formulation AC-SD-03 contains the active compound tricaprylin and excipients, 1:1.5. Thus 75 g AC-SD-03 contains 30 g tricaprylin and 45 g excipients (carrier, emulsifiers and flavouring). The placebo formulation, AC-SD-03P, contains 30 g safflower oil in place of the active compound tricaprylin and identical excipients to the active formulation.
Treatment Groups and Duration: At the Baseline Visit, all participants will receive a sentinel dose of 12.5 g AC-SD-03 (containing 5 g tricaprylin). […] Those that do tolerate the sentinel dose and meet other eligibility criteria, will enter the baseline measurement period of 4 weeks to determine migraine day participant eligibility for the study and to establish baseline data for comparison of endpoints during the study.
After the 4 weeks baseline measurement period, those who record 4-24 migraine days per month will be randomised to AC-SD-03 or placebo (AC-SD-03P) and will titrate from 12.5 g twice a day to 75 g twice a day, over the course of 2 weeks. Participants who have fewer than four or greater than 24 headache days per month in the baseline period will be discontinued from the study. The participant should not be told the number of migraine headache days on which eligibility is based to avoid biased reporting.
Once titration has completed, all participants will continue on the target dose they are on over an additional 10-week maintenance period.
The primary endpoint will be change from baseline in the number of migraine headache days during Month 3 (ΔMDMth3).
The secondary endpoints are: • Change from baseline in the number of migraine headache days during Month 1 (ΔMDMth1) and Month 2 (ΔMDMth2) of treatment and overall, from Months 1-3; • Change from baseline in duration of migraine of moderate to severe intensity during treatment months 1, 2 and 3; • Change from baseline in duration of migraine during treatment months 1, 2 and 3; • The proportion of participants with a 50% reduction from baseline in number of migraine headache days in treatment months 1, 2, and 3; • Change from baseline in monthly acute migraine medicine use during treatment months 1, 2 and 3; • Time to first usage of acute migraine medication; • Change from baseline Headache Impact Test (HIT-6) score at the end of Months 1, 2 and 3; • Incidence of adverse events; • Clinical safety laboratory tests; • Vital signs, ECGs, C-SSRS; […]

The nature of data set [3]: in-vitro digestion assays of emulsion. In kind it is in vitro ADME. The conditions noted are these: intestinal and/or colon pH vs stomach pH. From the text: In certain embodiments, the emulsion formed may be stable at stomach pH, e.g., at a pH of about 1 to about 3, about 1.2 to 2.9, etc. In certain embodiments, the emulsion formed may be stable at intestinal and/or colon pH, e.g., at a pH of about 5 to about 7, about 5.5 to about 6.9, etc. […] In accordance with certain aspects of the disclosure, preferential release of tricaprylin in the intestines and/or colon rather than the stomach may increase bioavailability of the tricaprylin given the location of lipid digestion enzymes in these areas.

SMILES strings stand for the structures.

Take `O=C(O)CCCO` [GHB]: the “prevention of CH attacks” value with CH attacks was “has been shown to prevent CH attacks”.
For the compound `CN(C)CCC=C1c2ccccc2CCc2ccccc21` [amitriptyline], the “effect on degree of discomfort” value in data set [1] (10 mg, earlier treatment of the same patient) is “reduced the degree of discomfort partially”. For the same compound, the adverse effect result in data set [1] (10 mg, earlier treatment of the same patient, discontinued) is given as “fatigue”.
As for `CC(=O)Nc1ccc(O)cc1` [paracetamol], the relief of cephalgia result in data set [1] (occasional self-medication) is “modest relief”.
As to `CCCCCCCC(=O)OCC(COC(=O)CCCCCCC)OC(=O)CCCCCCC` [tricaprylin], in data set [2] (12-week treatment, 40 treated), the “Discontinued treatment prior to completion, number of subjects” value is given as 18; the “Discontinued treatment prior to completion, percent of subjects” value is reported as “(45.0%)”; the “Primary reason for discontinuation: Adverse Event, number of subjects” value is 12; the “Primary reason for discontinuation: Adverse Event, percent of subjects” value is reported as “(30.0%)”. For the same compound, the “Change from baseline in migraine headache days, Month 2” value in data set [2] (Month 2, vs placebo, one-sided p=0.066 vs target of p<0.2) is on record as “clinically-relevant benefit”. Further, the “Change from baseline in migraine headache days, Month 3 (primary endpoint)” value in data set [2] (Month 3, EEITS, vs placebo, p=0.269 vs target of p<0.2) is given as “positive, clinically-relevant trend”. Moreover, the “release of encapsulated tricaprylin from emulsion” value in data set [3] was “released from emulsion at intestinal and/or colon pH”.
